Laboratory results: PubChem BioAssay (NCI)
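How tested: cells in 96-well plates exposed to compound for 48 hours at five concentrations. At the GI50, growth is halved. The concentration for full growth arrest is given as TGI.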

What was measured:
Assay in all cases: NCI anticancer screen, dose series, 48 h
SF-539 CNS = system: SF-539 CNS
HS 578T breast = system: HS 578T breast
K-562 leukemia = system: K-562 leukemia
OVCAR-4 ovarian = system: OVCAR-4 ovarian
NCI-H522 lung = system: NCI-H522 lung
UACC-257 melanoma = system: UACC-257 melanoma
NCI-H226 lung = system: NCI-H226 lung
BT-549 breast = system: BT-549 breast
HL-60(TB) leukemia = system: HL-60(TB) leukemia
IGROV1 ovarian = system: IGROV1 ovarian

SMILES | GI50 (SF-539 CNS) [µM] | TGI (SF-539 CNS) [µM] | GI50 (HS 578T breast) [µM] | TGI (HS 578T breast) [µM] | GI50 (K-562 leukemia) [µM] | TGI (K-562 leukemia) [µM] | GI50 (OVCAR-4 ovarian) [µM] | TGI (OVCAR-4 ovarian) [µM] | GI50 (NCI-H522 lung) [µM] | TGI (NCI-H522 lung) [µM] | GI50 (UACC-257 melanoma) [µM] | TGI (UACC-257 melanoma) [µM] | GI50 (NCI-H226 lung) [µM] | TGI (NCI-H226 lung) [µM] | GI50 (BT-549 breast) [µM] | TGI (BT-549 breast) [µM] | GI50 (HL-60(TB) leukemia) [µM] | TGI (HL-60(TB) leukemia) [µM] | GI50 (IGROV1 ovarian) [µM] | TGI (IGROV1 ovarian) [µM]
O=c1oc2ccc(Cl)cc2c(=O)n1-c1ccc(F)cc1F | 1.68 | 8.67 | 1.55 | 7.66 | 2.03 | > 100 | 1.11 | > 100 | 1.4 | 10.3 | 0.45 | 4.08 | 1.41 | 5.87 | 1.09 | 5.89 | 1.88 | 4.93 | 1.74 | > 100
COc1ccccc1NC(=O)CC(=O)n1nc(C)c(N=Nc2ccccc2Cl)c1C |  | > 100 |  | > 100 |  | > 100 |  | > 100 |  | > 100 |  | > 100 |  | > 100 |  | > 100 |  | > 100 |  | > 100
O=C(Nc1cccc(C(F)(F)F)c1)c1ccc(NC2=C(Cl)C(=O)N(Cc3ccccc3)C2=O)cc1 | 14.9 | 34.1 | 22.1 | > 100 | 1.46 | 12.5 | 25.8 | 54.7 | 3.02 | 8.29 | 27.9 | 58 | 16 | 35.8 | 1.25 | 5.49 | 2.08 | 5.64 | 2.01 | 4.63
O=C(O)CN1C(=O)CN=C(c2ccccn2)c2cc(Cl)ccc21 |  | > 100 |  | > 100 |  | > 100 |  | > 100 |  | > 100 |  | > 100 |  | > 100 |  | > 100 |  | 22.9 |  | > 100
CCN1C(=O)N(CC)C2C1NN=c1s/c(=C\c3ccc(C(F)(F)F)cc3)c(=O)n12 (stereo not given) | 0.247 | 0.785 | 0.349 | > 42.5 | 0.294 | > 39.8 | 0.839 | > 74.5 | 0.263 | 4.13 | 7.49 | 35.4 | 1.14 | > 24.8 | 0.783 | > 20.8 | 0.245 | 0.609 | 0.576 | 33.1
Cc1ccc(-c2nc(/C=N/Nc3cc(C)nc4ccc(Br)cc34)c(C)o2)cc1 | 1.72 | 3.18 | 17 | 38.6 | 1.93 | 4.58 | 1.89 | 3.49 | 1.94 | 4.13 | 2.13 | 5.02 | 15 | 42.1 | 14 | 29.3 | 1.9 | 4.05 | 1.84 | 3.52
COc1ccc(C2CC(c3ccc(OC)cc3O)=NN2c2ccc(S(N)(=O)=O)cc2)cc1 (stereo not given) | 30.2 | > 100 | 8.22 | 98.9 | 5.71 | > 100 | 30.8 | > 100 | 15.5 | > 100 | 15.9 | > 100 | 11.7 | > 100 | 13.5 | 57.2 | 11.9 | 47.9 | 6.34 | > 100
O=C1OC(c2ccc(Cl)cc2)=N/C1=C\c1ccccc1 |  | > 100 |  | > 100 |  | > 100 |  | > 100 |  | > 100 |  | > 100 |  | > 100 |  | > 100 |  | > 100 |  | > 100
FC(F)(F)c1nc(SCc2ccc(Cl)cc2)n[nH]1 |  | > 100 |  | > 100 |  | > 100 |  | > 100 |  | > 100 |  | > 100 |  | > 100 |  | > 100 |  | > 100 |  | > 100
NNc1nc2ccccc2o1 |  | > 100 |  | > 100 |  | > 100 |  | > 100 |  | > 100 |  | > 100 |  | > 100 |  | > 100 |  | > 100 |  | > 100
CCc1[nH]nc(C(N)=O)c1N=NN(C)C |  | > 100 |  | > 100 |  | 66.7 |  | > 100 |  | > 100 |  | > 100 |  | > 100 |  | > 100 |  | > 100 |  | > 100
O=C1/C(=C/c2ccc(F)cc2)CN(C(=O)C(Cl)Cl)C/C1=C\c1ccc(F)cc1 | 0.269 | 0.791 | 0.325 | 1.37 | 0.0533 | > 100 | 0.321 | 1.15 | 1.5 | 3.27 | 0.45 | 1.62 | 4.22 | 22.5 | 0.253 | 0.81 | 0.229 | 1.55 | 0.188 | 0.41
